Laboratory results published in patent publication US9850522B2, “One-step rapid assay for the detection of inhibitors of enzymes” (priority 2013, dated 2017).
Marks after values point to notes of the source that are not given here.

Assays:
AChE from eel = target: T1, AChE from eel (Electrophorus electricus, UniProt O42275); assay: AChE test ticket, fluorescence (NMI substrate), reader hue ratio; format: biochemical
T1 construct: purchased Sigma-Aldrich
Protocol: N-methyl indoxyl (NMI) acetate (100 mg, Sigma-Aldrich) was dissolved in 100 mil, 100% USP ethyl alcohol (Sigma-Aldrich) for a final concentration of […]. Strips of porous matrix Surewick Sample Pad C248 (Millipore) were saturated with this NMI solution and dried at 45° C. for two hours. The strips were then removed from the oven and stored in a resealable plastic bag with desiccant.
AChE from eel (Sigma-Aldrich) was dissolved to a final concentration of 2.2 units/mL in a buffer containing 10 mM potassium phosphate, 5% sucrose and 0.5% BSA at pH=7.4 and passed through a 0.22 μm filter. Strips of Millipore GFCP20300 glass fiber were pretreated by soaking with a mixture of 2% sucrose and 2% Triton in 6.25 mM borate buffer and dried at 45° C. in an oven for 2 hours. These glass fiber strips were then saturated with the solution of AChE and dried for 2 hours at 45° C. The strips were then removed from the oven and stored in a resealable plastic bag with desiccant.
To an adhesive-coated plastic backing, card (G&L) cut to 3×27 cm, is attached the fluid transfer membrane (nitrocellulose membrane) at a distance of 10 mm from the card bottom edge. The enzyme sample pad is attached flush to the bottom edge of the backing card overlapping the nitrocellulose membrane strip. The substrate pad is then attached flush to the other edge of the backing card (top edge), overlapping the nitrocellulose membrane. The assembled cards are then cut into 6.75 mm wide×16 mm long test strips using an automated guillotine cutter.
A stock solution (1 mg/mL) of the carbamate pesticide, oxamyl (Supelco), was prepared in methanol, then serially diluted in purified water to a final concentration of 0.1 mg/L for use as a test sample. […]
All tickets were then allowed to run for 15 minutes, then were inserted into a reader comprised of low light color cameras, 400 nm UV LED and custom color analysis software (FIG. 6). The reader calculates a ratio of the hue measured in the test sample site at the substrate pad to the hue measured in the negative control site at the substrate pad. […]

acetylcholinesterase = acetylcholinesterase (Electrophorus electricus, UniProt O42275); assay: Colorimetric test ticket, acetylcholinesterase strip; format: biochemical; conditions: 1 ppm; positive result, lack of blue color
Sequence of acetylcholinesterase (O42275 24-633): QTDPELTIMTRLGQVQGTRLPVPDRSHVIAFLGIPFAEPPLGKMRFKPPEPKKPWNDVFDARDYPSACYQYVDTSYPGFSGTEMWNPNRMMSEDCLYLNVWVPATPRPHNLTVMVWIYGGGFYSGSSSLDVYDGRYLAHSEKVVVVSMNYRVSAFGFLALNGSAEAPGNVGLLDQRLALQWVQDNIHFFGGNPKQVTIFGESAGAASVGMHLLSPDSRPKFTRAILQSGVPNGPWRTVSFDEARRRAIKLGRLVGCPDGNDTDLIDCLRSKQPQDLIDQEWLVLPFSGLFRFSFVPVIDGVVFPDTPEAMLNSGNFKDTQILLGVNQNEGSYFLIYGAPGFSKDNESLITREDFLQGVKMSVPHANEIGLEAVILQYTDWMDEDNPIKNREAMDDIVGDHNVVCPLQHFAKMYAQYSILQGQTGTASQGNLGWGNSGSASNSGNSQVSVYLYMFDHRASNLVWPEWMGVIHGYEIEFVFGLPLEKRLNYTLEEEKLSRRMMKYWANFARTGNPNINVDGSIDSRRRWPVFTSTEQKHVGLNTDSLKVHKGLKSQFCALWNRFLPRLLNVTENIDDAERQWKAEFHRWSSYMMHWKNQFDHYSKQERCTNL

T1 sequence (O42275 24-633): as above

SMILES: CNC(=O)O/N=C(\SC)C(=O)N(C)C [Oxamyl, oxamyl]
- Reactivity with AChE (AChE from eel): reacts strongly with AChE
- Fluorescence hue ratio (AChE from eel; tested with AChE, 0.1 mg/L in purified water, test sample well:control well, 15 minutes run): 2.82*
- Result (AChE from eel; tested with AChE, 0.1 mg/L, hue ratio cutoff of 1.25): Positive (a ratio greater than 1.25 is considered positive)
- Result of colorimetric test ticket (FIG. 14 C) (acetylcholinesterase): inhibits acetylcholinesterase
